# In PubChem BioAssay (NCI):
#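 GI50 is the concentration that inhibits growth by half. TGI: total growth inhibition.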
# What was measured:
# Assay in all cases: inhibition of tumour cell growth, NCI panel, 384-well format
# 786-0 renal = test system: 786-0 renal
# A498 renal = test system: A498 renal
# A549 NSCLC = test system: A549 NSCLC
# ACHN renal = test system: ACHN renal
# BT-549 breast = test system: BT-549 breast
# CAKI-1 renal = test system: CAKI-1 renal
# CCRF-CEM leukemia = test system: CCRF-CEM leukemia
# COLO 205 colon = test system: COLO 205 colon
# DU-145 prostate = test system: DU-145 prostate
# EKVX NSCLC = test system: EKVX NSCLC
# HCC-2998 colon = test system: HCC-2998 colon
# HCT-15 colon = test system: HCT-15 colon
# HL-60(TB) leukemia = test system: HL-60(TB) leukemia
# HOP-92 NSCLC = test system: HOP-92 NSCLC
# HS 578T breast = test system: HS 578T breast
# HT29 colon = test system: HT29 colon
# IGROV1 ovarian = test system: IGROV1 ovarian
# K-562 leukemia = test system: K-562 leukemia
# KM12 colon = test system: KM12 colon
# LOX IMVI melanoma = test system: LOX IMVI melanoma
# M14 melanoma = test system: M14 melanoma
# MALME-3M melanoma = test system: MALME-3M melanoma
# MCF7 breast = test system: MCF7 breast
# MDA-MB-231 breast = test system: MDA-MB-231 breast
# MDA-MB-435 melanoma = test system: MDA-MB-435 melanoma
# MDA-MB-468 breast = test system: MDA-MB-468 breast
# MOLT-4 leukemia = test system: MOLT-4 leukemia
# NCI-H226 lung = test system: NCI-H226 lung
# NCI-H23 lung = test system: NCI-H23 lung
# NCI-H322M lung = test system: NCI-H322M lung
# NCI-H460 NSCLC = test system: NCI-H460 NSCLC
# NCI-H522 lung = test system: NCI-H522 lung
# NCI/ADR-RES ovarian = test system: NCI/ADR-RES ovarian
# OVCAR-3 ovarian = test system: OVCAR-3 ovarian
# OVCAR-4 ovarian = test system: OVCAR-4 ovarian
# OVCAR-5 ovarian = test system: OVCAR-5 ovarian
# OVCAR-8 ovarian = test system: OVCAR-8 ovarian
# PC-3 prostate = test system: PC-3 prostate
# RPMI-8226 leukemia = test system: RPMI-8226 leukemia
# RXF 393 renal = test system: RXF 393 renal
# SF-268 CNS = test system: SF-268 CNS
# SF-295 CNS = test system: SF-295 CNS
# SF-539 CNS = test system: SF-539 CNS
# SK-MEL-28 melanoma = test system: SK-MEL-28 melanoma
# SK-MEL-5 melanoma = test system: SK-MEL-5 melanoma
# SK-OV-3 ovarian = test system: SK-OV-3 ovarian
# SN12C renal = test system: SN12C renal
# SNB-19 CNS = test system: SNB-19 CNS
# SNB-75 CNS = test system: SNB-75 CNS
# SR leukemia = test system: SR leukemia
# SW-620 colon = test system: SW-620 colon
# T-47D breast = test system: T-47D breast
# TK-10 renal = test system: TK-10 renal
# UACC-257 melanoma = test system: UACC-257 melanoma
# UACC-62 melanoma = test system: UACC-62 melanoma
# UO-31 renal = test system: UO-31 renal
compound,measurement,setting,value
COCc1cc(C(=O)Nc2cc([C@H]3CC[C@@H](OC(=O)NC(C)C)C3)[nH]n2)n(C)n1,GI50,786-0 renal,5.05 µM
same,TGI,786-0 renal,64.2 µM
same,GI50,A498 renal,1.52 µM
same,TGI,A498 renal,> 100 µM
same,GI50,A549 NSCLC,3.03 µM
same,TGI,A549 NSCLC,> 100 µM
same,GI50,ACHN renal,3.45 µM
same,TGI,ACHN renal,> 100 µM
same,GI50,BT-549 breast,3.38 µM
same,TGI,BT-549 breast,20.3 µM
same,GI50,CAKI-1 renal,3.99 µM
same,TGI,CAKI-1 renal,> 100 µM
same,GI50,CCRF-CEM leukemia,2.81 µM
same,TGI,CCRF-CEM leukemia,7.24 µM
same,GI50,COLO 205 colon,0.975 µM
same,TGI,COLO 205 colon,19 µM
same,GI50,DU-145 prostate,3.14 µM
same,TGI,DU-145 prostate,> 100 µM
same,GI50,EKVX NSCLC,14.9 µM
same,TGI,EKVX NSCLC,48.8 µM
same,GI50,HCC-2998 colon,5.15 µM
same,TGI,HCC-2998 colon,25.9 µM
same,GI50,HCT-15 colon,6.45 µM
same,TGI,HCT-15 colon,37.4 µM
same,GI50,HL-60(TB) leukemia,1.52 µM
same,TGI,HL-60(TB) leukemia,2.89 µM
same,GI50,HOP-92 NSCLC,14 µM
same,TGI,HOP-92 NSCLC,> 100 µM
same,GI50,HS 578T breast,11.4 µM
same,TGI,HS 578T breast,29.5 µM
same,GI50,HT29 colon,12.4 µM
same,TGI,HT29 colon,> 100 µM
same,GI50,IGROV1 ovarian,4.47 µM
same,TGI,IGROV1 ovarian,> 100 µM
same,GI50,K-562 leukemia,13.8 µM
same,TGI,K-562 leukemia,65.2 µM
same,GI50,KM12 colon,0.571 µM
same,TGI,KM12 colon,17.2 µM
same,GI50,LOX IMVI melanoma,3.12 µM
same,TGI,LOX IMVI melanoma,18.9 µM
same,GI50,M14 melanoma,4.82 µM
same,TGI,M14 melanoma,18.8 µM
same,GI50,MALME-3M melanoma,12.3 µM
same,TGI,MALME-3M melanoma,26.1 µM
same,GI50,MCF7 breast,2.66 µM
same,TGI,MCF7 breast,13.4 µM
same,GI50,MDA-MB-231 breast,9.08 µM
same,TGI,MDA-MB-231 breast,> 100 µM
same,GI50,MDA-MB-435 melanoma,12.5 µM
same,TGI,MDA-MB-435 melanoma,84.8 µM
same,GI50,MDA-MB-468 breast,13.9 µM
same,TGI,MDA-MB-468 breast,27 µM
same,GI50,MOLT-4 leukemia,4.36 µM
same,TGI,MOLT-4 leukemia,12.5 µM
same,GI50,NCI-H226 lung,2.85 µM
same,TGI,NCI-H226 lung,51.6 µM
same,GI50,NCI-H23 lung,2.48 µM
same,TGI,NCI-H23 lung,10.1 µM
same,GI50,NCI-H322M lung,3.8 µM
same,TGI,NCI-H322M lung,13 µM
same,GI50,NCI-H460 NSCLC,3.07 µM
same,TGI,NCI-H460 NSCLC,14.3 µM
same,GI50,NCI-H522 lung,15.1 µM
same,TGI,NCI-H522 lung,31.6 µM
same,GI50,NCI/ADR-RES ovarian,> 100 µM
same,TGI,NCI/ADR-RES ovarian,> 100 µM
same,GI50,OVCAR-3 ovarian,5.24 µM
same,TGI,OVCAR-3 ovarian,28.8 µM
same,GI50,OVCAR-4 ovarian,18.3 µM
same,TGI,OVCAR-4 ovarian,52.7 µM
same,GI50,OVCAR-5 ovarian,3.12 µM
same,TGI,OVCAR-5 ovarian,9.17 µM
same,GI50,OVCAR-8 ovarian,4.64 µM
same,TGI,OVCAR-8 ovarian,36.2 µM
same,GI50,PC-3 prostate,6.59 µM
same,TGI,PC-3 prostate,> 100 µM
same,GI50,RPMI-8226 leukemia,1.84 µM
same,TGI,RPMI-8226 leukemia,6.78 µM
same,GI50,RXF 393 renal,5.42 µM
same,TGI,RXF 393 renal,23.4 µM
same,GI50,SF-268 CNS,2.37 µM
same,TGI,SF-268 CNS,15.4 µM
same,GI50,SF-295 CNS,10.3 µM
same,TGI,SF-295 CNS,79.3 µM
same,GI50,SF-539 CNS,3.97 µM
same,TGI,SF-539 CNS,19.6 µM
same,GI50,SK-MEL-28 melanoma,10.3 µM
same,TGI,SK-MEL-28 melanoma,22.8 µM
same,GI50,SK-MEL-5 melanoma,0.762 µM
same,TGI,SK-MEL-5 melanoma,13.9 µM
same,GI50,SK-OV-3 ovarian,8.29 µM
same,TGI,SK-OV-3 ovarian,90.1 µM
same,GI50,SN12C renal,4.38 µM
same,TGI,SN12C renal,23.9 µM
same,GI50,SNB-19 CNS,5.67 µM
same,TGI,SNB-19 CNS,> 100 µM
same,GI50,SNB-75 CNS,8.98 µM
same,TGI,SNB-75 CNS,22.3 µM
same,GI50,SR leukemia,0.557 µM
same,TGI,SR leukemia,1.86 µM
same,GI50,SW-620 colon,2.45 µM
same,TGI,SW-620 colon,65.4 µM
same,GI50,T-47D breast,5.58 µM
same,TGI,T-47D breast,> 100 µM
same,GI50,TK-10 renal,14.8 µM
same,TGI,TK-10 renal,> 100 µM
same,GI50,UACC-257 melanoma,6.8 µM
same,TGI,UACC-257 melanoma,25.3 µM
same,GI50,UACC-62 melanoma,2.98 µM
same,TGI,UACC-62 melanoma,12.8 µM
same,GI50,UO-31 renal,31.5 µM
same,TGI,UO-31 renal,> 100 µM
